Laboratory results: patent publication US10308632B2, “Antifungal compounds and processes for making” (VPS-3, Inc., priority 2015, dated 2019)

What was measured:
Assay type in all cases: physicochemical
[1] = Thermo-gravimetric analysis (TGA), decomposition onset; conditions: heated at 10° C./min
Procedure: Thermo-gravimetric analysis (TGA) data were collected on a TA Instruments Discovery TGA, equipped with a 25 position auto-sampler. The instrument was temperature calibrated using certified alumel and nickel. Typically, 3-10 mg of each sample was loaded onto a pre-tared aluminium pan and heated at 10° C./min from ambient temperature to 350° C. A nitrogen purge at 25 mL/min was maintained over the sample. The instrument control and data analysis software was TRIOS v3.2.0.3877.

[2] = Gravimetric/dynamic vapor sorption (GVS/DVS) moisture sorption isotherm; conditions: for GVS hysteresis: 0-90% RH range; for moisture uptake by GVS: at 90% RH; for GVS water uptake: over 0-90% RH range, 25° C.; for XRPD post GVS: sample re-analysed by XRPD after isotherm
Procedure: Gravimetric Vapor Sorption (GVS) isotherms were obtained using a SMS DVS Intrinsic moisture sorption analyser, controlled by DVS Intrinsic Control software v1.0.1.2 (or v 1.0.1.3). The sample temperature was maintained at 25° C. by the instrument controls. The humidity was controlled by mixing streams of dry and wet nitrogen, with a total flow rate of 200 mL/min The relative humidity was measured by a calibrated Rotronic probe (dynamic range of 1.0-100% RH), located near the sample. The weight change, (mass relaxation) of the sample as a function of % RH was constantly monitored by the microbalance (accuracy ±0.005 mg). Typically. 10-15 mg of sample was placed in a tared mesh stainless steel basket under ambient conditions. The sample was loaded and unloaded at 40% RH and 25° C. (typical room conditions). A moisture sorption isotherm was performed as outlined below (2 scans giving 1 complete cycle). The standard isotherm was performed at 25° C. at 10% RH intervals over a 0-90% RH range. Data analysis was undertaken in Microsoft Excel using DVS Analysis Suite v6.2 (or 6.1 or 6.0). [table] The sample was recovered after completion of the isotherm and re-analysed by XRPD.

[3] = XRPD stability after 7 days storage at elevated humidity
Procedure: X-Ray Powder Diffraction patterns were collected on a Bruker AXS C2 GADDS diffractometer using Cu Kα radiation (40 kV, 40 mA), automated XYZ stage, laser video microscope for auto-sample positioning and a HiStar 2-dimensional area detector. X-ray optics consists of a single Göbel multilayer mirror coupled with a pinhole collimator of 0.3 mm. A weekly performance check is carried out using a certified standard NIST 1976 Corundum (flat plate). The beam divergence, i.e. the effective size of the X-ray beam on the sample, was approximately 4 mm. A Θ-Θ continuous scan mode was employed with a sample—detector distance of 20 cm which gives an effective […] of 3.2°-29.7°. Typically the sample would be exposed to the X-ray beam for 120 seconds. The software used for data collection was GADDS for XP/2000 4.1.43 and the data were analysed and presented using Diffrac Plus EVA v13.0.0.2 or v15.0.0.0. Samples run under ambient conditions were prepared as flat plate specimens using powder as received without grinding. Approximately 1-2 mg of the sample was lightly pressed on a glass slide to obtain a flat surface. Samples run under non-ambient conditions were mounted on a silicon wafer with heat-conducting compound. The sample was then heated to the appropriate temperature at 30° C./min and subsequently held isothermally for 1 minute before data collection was initiated. X-Ray Powder Diffraction patterns were also collected on a Bruker D8 diffractometer using Cu Kα radiation (40 kV, 40 mA), θ-2θ goniometer, and divergence of V4 and receiving slits, a Ge monochromator and a Lynxeye detector. The instrument is performance checked using a certified Corundum standard (NIST 1976). The software used for data collection was Diffrac Plus XRD Commander v2.6.1 and the data were analysed and presented using Diffrac Plus EVA v15.0.0.0. Samples were run under ambient conditions as flat plate specimens using powder as received. The sample was gently packed into a cavity cut into polished, zero-background (510) silicon wafer. The sample was rotated in its own plane during analysis. The details of the data collection are: Angular range: 2 to 42° 2 θ; Step size: 0.05° 2θ; Collection time: 0.5 s/step.

[4] = Competitive slurry experiments of Form 1 and Form 2 (thermodynamic stability); conditions: temperature range investigated (5° C., 25° C., 50° C.)
Procedure: The melt of Form 1 of compound 5 was determined by DSC to be at 129.0° C. with an enthalpy of −46 J/g. A melt endotherm was not determined for Form 2 as it transforms to Form 1 upon heating at different rates. […] These experiments were performed in IPA, ethanol and toluene. To conduct these experiments a solid mixture of Forms 1 and 2 (<18 mg per sample) was suspended in the corresponding saturated solution of compound 5 and stirred at the desired temperature. Saturated solutions of compound 5 were prepared at 50° C. by dissolving 40 mg, 60 mg and 200 mg of sample in 1.4 mL of IPA, 0.8 mL of ethanol and 0.8 mL of toluene, respectively. The slurries were filtered, air-dried and analyzed by XRPD after stirring for up to 10 days at the desired temperature. […] All the experiments except for that performed in IPA at 5° C. gave pure Form 1.

[5] = Variable temperature XRPD (VT-XRPD), polymorph conversion; conditions: upon heating
Procedure: X-Ray Powder Diffraction patterns were collected on a Bruker AXS C2 GADDS diffractometer using Cu Kα radiation (40 kV, 40 mA), automated XYZ stage, laser video microscope for auto-sample positioning and a HiStar 2-dimensional area detector. X-ray optics consists of a single Göbel multilayer mirror coupled with a pinhole collimator of 0.3 mm. A weekly performance check is carried out using a certified standard NIST 1976 Corundum (flat plate). The beam divergence, i.e. the effective size of the X-ray beam on the sample, was approximately 4 mm. A Θ-Θ continuous scan mode was employed with a sample—detector distance of 20 cm which gives an effective […] of 3.2°-29.7°. Typically the sample would be exposed to the X-ray beam for 120 seconds. The software used for data collection was GADDS for XP/2000 4.1.43 and the data were analysed and presented using Diffrac Plus EVA v13.0.0.2 or v15.0.0.0. Samples run under ambient conditions were prepared as flat plate specimens using powder as received without grinding. Approximately 1-2 mg of the sample was lightly pressed on a glass slide to obtain a flat surface. Samples run under non-ambient conditions were mounted on a silicon wafer with heat-conducting compound. The sample was then heated to the appropriate temperature at 30° C./min and subsequently held isothermally for 1 minute before data collection was initiated. […]

SMILES | TGA decomposition onset [1] | GVS hysteresis [2] | moisture uptake by GVS [2] | GVS water uptake [2] | XRPD post GVS [2] | XRPD stability post 7 days ([3]; 25° C. & 96% RH) | XRPD stability post 7 days ([3]; 40° C. & 75% RH) | stability after 7 days storage at elevated humidity conditions [3] | thermodynamic stability of the pair Form 1/Form 2 [4] | VT-XRPD: conversion to Form 1 starts at [5]
N#Cc1ccc(COc2ccc(C#Cc3ccc(C(F)(F)[C@](O)(Cn4cnnn4)c4ccc(F)cc4F)nc3)cc2)cc1 [Compound 5 (Anhydrous Form 1)] | Decomposition onset at ~200 °C | (slight hysteresis observed) | ~1.3% | ca. 1.3% water uptake over | unchanged | Unchanged by XRPD | Unchanged by XRPD | stable | thermodynamically stable form | 
N#Cc1ccc(COc2ccc(C#Cc3ccc(C(F)(F)[C@](O)(Cn4cnnn4)c4ccc(F)cc4F)nc3)cc2)cc1 [Compound 5 (Anhydrous Form 2)] | Decomposition onset at ~200 °C | (no hysteresis observed) | ~0.7% | ca. 0.7% water uptake over | unchanged | Unchanged by XRPD | Unchanged by XRPD | remained stable |  | at 105 °C
N#Cc1ccc(COc2ccc(C#Cc3ccc(C(F)(F)[C@](O)(Cn4cnnn4)c4ccc(F)cc4F)nc3)cc2)cc1 [Compound 14] | Decomposition onset at ~300 °C | (no hysteresis observed) | ~1.6% | ca. 1.6% water uptake over | unchanged | Unchanged by XRPD | Unchanged by XRPD | stable |  | 
